Assay results from US20260248894A1, “COMBINATION THERAPY FOR PRETERM INFANTS” (Oak Hill Bio Ltd, priority 2022, published 2026).
Counter-ions that a name gives are not always drawn. Like-named read-outs stand apart in the source and are kept apart here.

Assays:
[1] = molecular target: T1, rhIGF-1/rhIGFBP-3 drug product (Homo sapiens, UniProt P05019+P17936, DEL119-195); assay: Small-molecule chemical compatibility: small-molecule content post mixing by RP-HPLC-UV or ion chromatography; assay type: physicochemical; settings: post mixing with rhIGF-1/rhIGFBP-3 drug product, last specified time point(s)
T1 construct: purchased Takeda, Lexington, MA, USA
T1 sequence (P05019 49-118 limits assumed, stated change not applied): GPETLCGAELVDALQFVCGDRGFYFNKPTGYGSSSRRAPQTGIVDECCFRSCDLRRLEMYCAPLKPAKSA
T1 sequence (P17936 28-291, stated change not applied): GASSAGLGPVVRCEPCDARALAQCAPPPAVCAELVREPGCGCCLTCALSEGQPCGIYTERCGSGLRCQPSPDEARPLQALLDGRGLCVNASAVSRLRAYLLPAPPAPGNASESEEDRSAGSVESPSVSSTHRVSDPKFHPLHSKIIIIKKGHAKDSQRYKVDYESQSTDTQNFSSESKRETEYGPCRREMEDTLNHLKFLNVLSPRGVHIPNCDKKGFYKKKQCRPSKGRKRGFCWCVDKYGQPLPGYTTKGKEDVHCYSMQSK

[2] = molecular target: T1, rhIGF-1/rhIGFBP-3 drug product; assay: In vitro physical compatibility of test medications mixed with rhIGF-1/rhIGFBP-3 (visual observation, OD320, pH, osmolality); assay type: physicochemical; settings: for visual observation (and OD320) upon mixing: mixture with rhIGF-1/rhIGFBP-3 drug product
[3] = tested on: insulin; settings: cited from earlier work
[4] = tested on: insulin; settings: no compatibility data available with insulin
[5] = molecular target: T1, rhIGF-1/rhIGFBP-3 drug product; assay: Protein-specific (mass spectrometry-based) analyses of rhIGF-1/rhIGFBP-3 chemical compatibility and the final compatibility decision; assay type: physicochemical
[6] = mixed with rhIGF-1/rhIGFBP-3 drug product at representative clinical doses, room temperature

CC1(C)S[C@@H]2[C@H](NC(=O)Cc3ccccc3)C(=O)N2[C@H]1C(=O)[O-].[K+] [Penicillin G, Penicillin G potassium]
Chemical compatibility for small-molecule content (RP-HPLC) [1]: Yes (Chemical incompatibility was considered to be a loss of the small-molecule content of ~10% or more over the defined testing period)
physical compatibility with rhIGF-1/rhIGFBP-3 ([2]; conditions and doses tested): considered incompatible
pH shift ([2]; highest penicillin G dose of 125,000 Units/kg/30 min): pH shift (up to 1.3 pH units for the highest
Physical compatibility [2, 6]: No

NC[C@H](O)c1ccc(O)c(O)c1 [Norepinephrine bitartrate]
pH change post mixing (in words) [2]: Only the lowest dose was physically
physical compatibility with rhIGF-1/rhIGFBP-3 [2]: considered incompatible

C[C@@H](O)[C@H]1C(=O)N2C(C(=O)O)=C(S[C@@H]3CN[C@H](C(=O)N(C)C)C3)[C@H](C)[C@H]12 [Meropenem]
Chemical compatibility for small-molecule content (RP-HPLC) [1]: Yes (Chemical incompatibility was considered to be a loss of the small-molecule content of ~10% or more over the defined testing period)
physical compatibility with rhIGF-1/rhIGFBP-3 ([2]; conditions and doses tested): considered incompatible
Physical compatibility [2, 6]: No
pH change post mixing ([2]; mixture with rhIGF-1/rhIGFBP-3): Observed pH change of ~2.4 post mixing,

CN[C@H](CC(C)C)C(=O)N[C@H]1C(=O)N[C@@H](CC(N)=O)C(=O)N[C@H]2C(=O)N[C@H]3C(=O)N[C@H](C(=O)N[C@H](C(=O)O)c4cc(O)cc(O)c4-c4cc3ccc4O)[C@H](O)c3ccc(c(Cl)c3)Oc3cc2cc(c3O[C@@H]2O[C@H](CO)[C@@H](O)[C@H](O)[C@H]2O[C@H]2C[C@](C)(N)[C@H](O)[C@H](C)O2)Oc2ccc(cc2Cl)[C@H]1O [Vancomycin hydrochloride]
compatibility with insulin [3]: established
Physical compatibility [2]: Yes

OC(Cn1cncn1)(Cn1cncn1)c1ccc(F)cc1F [Fluconazole]
Chemical compatibility for small-molecule content (RP-HPLC) [1]: Yes (Chemical incompatibility was considered to be a loss of the small-molecule content of ~10% or more over the defined testing period)
expected reaction on the basis of theoretical evaluation and the solution pH [4]: a reaction is not expected
physical compatibility with rhIGF-1/rhIGFBP-3 ([2]; conditions and doses tested): physical compatibility was established
Physical compatibility [2, 6]: Yes

Insulin
Chemical compatibility for small-molecule content (RP-HPLC) [1]: Yes (Chemical incompatibility was considered to be a loss of the small-molecule content of ~10% or more over the defined testing period)
physical compatibility with rhIGF-1/rhIGFBP-3 ([2]; conditions and doses tested): physical compatibility was established
Physical compatibility [2, 6]: Yes

Cl.NCCc1ccc(O)c(O)c1 [Dopamine hydrochloride]
effect on rhIGF-1/rhIGFBP-3 drug product in protein-specific analyses [5]: data demonstrated an impact on the rhIGF-
Physical compatibility [2]: No
pH change post mixing (in words) [2]: A dopamine dose-dependent physical change
physical compatibility with rhIGF-1/rhIGFBP-3 [2]: considered incompatible

CC1(C)S[C@@H]2[C@H](NC(=O)[C@H](N)c3ccccc3)C(=O)N2[C@H]1C(=O)O [Ampicillin sodium]
Chemical compatibility for small-molecule content (RP-HPLC) [1]: Yes (Chemical incompatibility was considered to be a loss of the small-molecule content of ~10% or more over the defined testing period)
physical compatibility with rhIGF-1/rhIGFBP-3 ([2]; conditions and doses tested): considered incompatible
Physical compatibility [2, 6]: No
pH change post mixing (in words) ([2]; mixture with rhIGF-1/rhIGFBP-3): Observed change in pH of rhIGF-1/rhIGFBP-3

rhIGF-1/rhIGFBP-3 drug product: recombinant human protein complex of insulin-like growth factor-1 (IGF-1) and insulin-like growth factor binding protein-3 (IGFBP-3)
pH value of the unmixed product ([2]; not in the mixture): 5.5

Cn1c(=O)c2c(ncn2C)n(C)c1=O.O=C(O)CC(O)(CC(=O)O)C(=O)O [Caffeine citrate]
Physical compatibility [2]: Yes^a
pH difference of mixed samples compared with the control [2]: demonstrated ~1.0 unit difference compared
physical compatibility with rhIGF-1/rhIGFBP-3 [2]: physical compatibility was established

NCC[C@H](O)C(=O)N[C@@H]1C[C@H](N)[C@@H](O[C@H]2O[C@H](CN)[C@@H](O)[C@H](O)[C@H]2O)[C@H](O)[C@H]1O[C@H]1O[C@H](CO)[C@@H](O)[C@H](N)[C@H]1O.O=S(=O)(O)O.O=S(=O)(O)O [Amikacin sulfate]
Chemical compatibility for small-molecule content (RP-HPLC) [1]: Yes (Chemical incompatibility was considered to be a loss of the small-molecule content of ~10% or more over the defined testing period)
physical compatibility with rhIGF-1/rhIGFBP-3 ([2]; conditions and doses tested): considered incompatible
Physical compatibility [2, 6]: No
decrease in pH of mixtures compared with controls ([2]; mixture with rhIGF-1/rhIGFBP-3): Mixtures demonstrated a decrease in pH of ~0.6 units

NS(=O)(=O)c1cc(C(=O)O)c(NCc2ccco2)cc1Cl [Furosemide]
Chemical compatibility for small-molecule content (RP-HPLC) [1]: Yes (Chemical incompatibility was considered to be a loss of the small-molecule content of ~10% or more over the defined testing period)
physical compatibility with rhIGF-1/rhIGFBP-3 ([2]; conditions and doses tested): considered incompatible
Physical compatibility [2, 6]: No
time after mixing to cloudiness / turbidity ([2]; mixture with rhIGF-1/rhIGFBP-3): ≤ 30 min
visual observation (and OD320) upon mixing [2]: Cloudiness observed

CC(CCc1ccc(O)cc1)NCCc1ccc(O)c(O)c1 (stereo not shown) [Dobutamine hydrochloride]
Chemical compatibility for small-molecule content (RP-HPLC) [1]: Yes (Chemical incompatibility was considered to be a loss of the small-molecule content of ~10% or more over the defined testing period)
final compatibility decision informed by protein-specific studies / sodium (meta)bisulfite in the formulation [5]: medication is considered incompatible
physical compatibility with rhIGF-1/rhIGFBP-3 ([2]; conditions and doses tested): considered incompatible
Physical compatibility [2, 6]: No
visual observation (and OD320) upon mixing [2]: physical compatibility (no precipitation, no

Cc1ncc2n1-c1ccc(Cl)cc1C(c1ccccc1F)=NC2 [Midazolam, Midazolam hydrochloride]
compatibility with insulin [3]: established
Physical compatibility [2]: Yes
physical compatibility with rhIGF-1/rhIGFBP-3 [2]: physical compatibility was established

Gentamicin
Chemical compatibility for small-molecule content (RP-HPLC) [1]: Yes (Chemical incompatibility was considered to be a loss of the small-molecule content of ~10% or more over the defined testing period)
